Data: patent publication US12521439B2, “Methods and materials for modulating Nrf2 pathway” (The General Hospital Corporation, priority 2019, dated 2026)

What was measured:
bovine catalase = target: T1, bovine catalase (Bos taurus, UniProt P00432); assay: Differential alkylation mass spectrometry, catalase; assay type: binding
T1 construct: purchased Sigma-Aldrich
T1 sequence (P00432 1-527): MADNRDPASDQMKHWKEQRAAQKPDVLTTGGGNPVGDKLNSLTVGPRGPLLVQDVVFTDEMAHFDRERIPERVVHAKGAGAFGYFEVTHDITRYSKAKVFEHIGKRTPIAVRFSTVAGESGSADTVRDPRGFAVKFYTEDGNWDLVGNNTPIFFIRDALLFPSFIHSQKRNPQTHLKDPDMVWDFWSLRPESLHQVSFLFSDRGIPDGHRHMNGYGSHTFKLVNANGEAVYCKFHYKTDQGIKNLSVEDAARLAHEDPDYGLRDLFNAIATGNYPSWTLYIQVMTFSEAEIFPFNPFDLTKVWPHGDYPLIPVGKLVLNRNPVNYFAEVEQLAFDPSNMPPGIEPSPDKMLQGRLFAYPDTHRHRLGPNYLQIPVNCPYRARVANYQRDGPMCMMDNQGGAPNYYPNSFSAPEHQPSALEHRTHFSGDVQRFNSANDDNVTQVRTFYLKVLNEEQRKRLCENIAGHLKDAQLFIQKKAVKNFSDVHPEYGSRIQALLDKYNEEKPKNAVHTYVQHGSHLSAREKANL
Experimental: Differential Alkylation for OBT Binding Characterization: 10 μg of bovine catalase (Sigma-Aldrich) were suspended in 100 μl of 50 mM HEPES (pH 8.5)/0.5% SDS and OBT, iodoacetamide (IAA), or N-ethylmaleimide (NEM) was added to a final concentration of 5 mM and the mixtures were incubated for 30 min at RT in the dark before adding IAA to all three reactions to a final concentration of 10 mM in the sample treated with IAA in the first alkylation step, and of 5 mM in the other two samples. Upon incubation at RT for 30 min in the dark dithiothreitol (DTT) was added to all reaction to a final concentration of 20 mM and the reactions were first incubated at RT in the dark for 15 min and then at 56° C. for 30 min. Then, NEM was added to all reactions to a final concentration of 100 mM followed by incubation at RT in the dark for 30 min. The experiments were done in triplicate. Samples were analyzed by mass spectrometry as described below.
Quantitative Proteomics: Cell pellets were lysed in a buffer of 75 mM NaCl, 50 mM HEPES pH 8.5, 10 mM sodium pyrophosphate, 10 mM sodium fluoride, 10 mM β-glycerophosphate, 10 mM sodium orthovanadate, 10 mM PMSF, Roche complete mini EDTA free protease inhibitors (1 tablet per 20 ml), and 3% SDS. Lysis was achieved by passing the suspension through a 21-gauge needle 20 times. Proteins were prepared for proteomics analysis as described previously. […] Twelve fractions were analyzed by multiplexed quantitative proteomics performed on an Orbitrap Fusion mass spectrometer (Thermo Scientifc) using a Simultaneous Precursor Selection (SPS) based MS3 method. […] For the cell line samples only MS3 with an average signal-to-noise value of larger than 40 per reporter ion as well as with an isolation specificity of larger than 0.75 were considered for quantification. […] A two-step normalization of the protein TMT-intensities was performed by first normalizing the protein intensities over all acquired TMT channels for each protein based on the median average protein intensity calculated for all proteins. […]

MDA-MB231 cells = assay: Cell viability (CellTiter-Glo), MDA-MB231; assay type: cell-based, human; settings: co-treatment MLN4924 (1 μM), three days
Experimental: Cell culture: MDA-MB-231 and U87 (U87-MG) cells were obtained from the American Type Culture Collection (ATCC). 293T human embryonic kidney fibroblasts were provided by Dr. Xandra Breakefield (Massachusetts General Hospital). All three cell lines were grown in Dulbecco's modified Eagle medium supplemented with 10% fetal bovine serum (Gemini Bio-products), 100 U penicillin, and 0.1 mg/mL streptomycin (Sigma). All cells were maintained at 37° C. in a humidified 5% CO2 incubator. GSCs were obtained from tumor tissues of GBM patients following surgical resection, under approval from the corresponding Institutional Review Board. These cells have been previously characterized (ref. 37-39) and were maintained in culture as neurospheres in Neurobasal medium (Gibco) supplemented with heparin (2 μg/mL; Sigma) and recombinant EGF (20 ng/mL) and bFGF-2 (10 ng/mL; Peprotech). Human Astrocytes were obtained from ScienCell and cultured in Astrocytes Medium (ScienCell)
Cell viability: Cells were plated in 96-well plates and treated with the corresponding compounds. Cell viability was measured by adding 25 μl/well of CellTiter-Glo (Promega) followed by 10 minutes incubation and transfer to a white 96-well plate. Bioluminescence was quantified using Synergy HTX multimode reader (Biotek).

HO1, NQO1, TXNRD2 mRNA = assay: qRT-PCR of Nrf2 target genes in cancer cells; assay type: cell-based, human
Experimental: Real-time qRT-PCR: Total RNA isolation from cultured cells was performed using RNeasy kit (Qiagen), followed by reverse transcription with OneScript cDNA synthesis Kit (ABM). mRNA expression of different genes was then analyzed by quantitative PCR using PowerUp SYBR Green Master Mix (Applied Biosystems) and performed using a QuantStudio3 real-time PCR system (Applied Biosystems). Primer sequences for HO1, NQO1, TXNRD2 were obtained from the MGH primer bank and were as follows: HO1 Forward, 5′-[…]-3′ and reverse 5′-[…]-3′; NQO1 Forward 5′-[…]-3′ and reverse 5′-[…]-3′ and Txnrd2 forward 5′-[…]-3 and reverse 5′-[…]. Oligonucleotides were synthesized by the CCIB DNA Core Facility at Massachusetts General Hospital. Expression of human GAPDH was used to mRNA normalization and relative mRNA expression was calculated using the comparative Ct method.

[1] = 2-fold excess of DTT over alkylating reagents

## COC1=CC(=O)C(O)=C/C1=C/C=C/c1ccccc1 [OBT, (Z)-2-hydroxy-5-methoxy-4-((E)-3-phenylallylidene)cyclohexa-2,5-dien-1-one]
Bovine catalase; 5 mM OBT, differential alkylation
  binding to cysteine residues of bovine catalase: binds to all detected peptides with cysteine residues
Bovine catalase; [1]
  binding type at Cys-232 and Cys-460: tight or irreversible binding
  binding type at Cys-377: reversible binding
MDA-MB231 cells
  cell death with neddylation inhibitor MLN4924: protection against cell death
HO1, NQO1, TXNRD2 mRNA; U87 and MDA-MB-231 cells
  NQO1 and TXNRD2 mRNA: upregulated
HO1, NQO1, TXNRD2 mRNA; different cancer cells, 8 hours, normalized to GAPDH
  HO1 mRNA expression: strong increase
